Measurements as given in patent US4319028A, “7-(2-(Substituted benzoyl)amino)acetamido)cephalosporins” (Eli Lilly and Company, priority 1976, dated 1982).
≈ marks a conversion by molar mass, not a printed value. Where two headings read alike, the source gives them in different places.

Tests used:
[1] = test system: Shigella sp.; assay: Antibiotic activity (MIC), Gradient Plate in vitro method, Shigella sp.; assay type: cell-based; settings: read-out: Minimum Inhibitory Concentration
Description: (§1) The antibiotic activity of the cephalosporin compounds of the present invention is illustrated by the data presented in Table I for representative compounds. The values in the table are the minimum inhibitory concentrations (MIC) for the test compounds against the indicated microorganisms. The MIC values were obtained in the Gradient Plate in vitro method for determining antibiotic activity.

[2] = test system: Serratia marcescens; assay: Antibiotic activity (MIC), Gradient Plate in vitro method, Serratia marcescens; assay type: cell-based; settings: read-out: Minimum Inhibitory Concentration
Description: as §1

[3] = test system: Salmonella heidelberg; assay: Antibiotic activity (MIC), Gradient Plate in vitro method, Salmonella heidelberg; assay type: cell-based; settings: Salmonella enterica, read-out: Minimum Inhibitory Concentration
Description: (§2) The values in the table are the minimum inhibitory concentrations (MIC) for the test compounds against the indicated microorganisms. The MIC values were obtained in the Gradient Plate in vitro method for determining antibiotic activity.

[4] = test system: Escherichia coli; assay: Antibiotic activity (MIC), Gradient Plate in vitro method, Escherichia coli; assay type: cell-based; settings: read-out: Minimum Inhibitory Concentration
Description: as §2

[5] = test system: V84 (penicillin resistant Staphylococcus); assay: Antibiotic activity (MIC), Gradient Plate in vitro method, V84; assay type: cell-based; settings: read-out: Minimum Inhibitory Concentration
Description: as §1
(§3) ^1 Test organisms V41, V32, and V84 are penicillin resistant

[6] = Titration (pKa); assay type: physicochemical; settings: 66% dmf-34% h2o, titration (66% DMF-34% H2O)
[7] = test system: Pseudomonas Aeruginosa; assay: Antibiotic activity (MIC), Gradient Plate in vitro method, Pseudomonas Aeruginosa; assay type: cell-based; settings: read-out: Minimum Inhibitory Concentration
Description: as §2

[8] = test system: V32 (penicillin resistant Staphylococcus); assay: Antibiotic activity (MIC), Gradient Plate in vitro method, V32; assay type: cell-based; settings: read-out: Minimum Inhibitory Concentration
Description: as §1, §3

[9] = test system: X466 (methicillin resistant Staphylococcus); assay: Antibiotic activity (MIC), Gradient Plate in vitro method, X466; assay type: cell-based; settings: read-out: Minimum Inhibitory Concentration
Description: as §1, with “activity. […]” for “activity.”

[10] = test system: V41 (penicillin resistant Staphylococcus); assay: Antibiotic activity (MIC), Gradient Plate in vitro method, V41; assay type: cell-based; settings: read-out: Minimum Inhibitory Concentration
Description: as §1, §3

[11] = test system: Aerobacter Aerogenes; assay: Antibiotic activity (MIC), Gradient Plate in vitro method, Aerobacter Aerogenes; assay type: cell-based; settings: Klebsiella aerogenes, read-out: Minimum Inhibitory Concentration
Description: as §2

[12] = test system: Klebsiella pneumoniae; assay: Antibiotic activity (MIC), Gradient Plate in vitro method, Klebsiella pneumoniae; assay type: cell-based; settings: read-out: Minimum Inhibitory Concentration
Description: as §2

[13] = Gradient Plate in vitro, V84, penicillin resistant Staphylococcus
[14] = first pKa, read-out: pKa (first value)
[15] = second pKa, read-out: pKa (second value)
[16] = Gradient Plate in vitro, V41, penicillin resistant Staphylococcus
[17] = Gradient Plate in vitro, V32, penicillin resistant Staphylococcus
[18] = third pKa, read-out: pKa (third value)

Compound	MIC [1] [µg/mL]	MIC [2] [µg/mL]	MIC [3] [µg/mL]	MIC [4] [µg/mL]	MIC [5, 13] [µg/mL]	pKa [6, 14]	pKa [6, 15]	MIC [7] [µg/mL]	MIC ([8]; Staphylococcus) [µg/mL]	MIC [9] [µg/mL]	MIC [10, 16] [µg/mL]	MIC [11] [µg/mL]	MIC [12] [µg/mL]	MIC [8, 17] [µg/mL]	MIC ([5]; Staphylococcus) [µg/mL]	MIC ([10]; Staphylococcus) [µg/mL]	pKa [6, 18]
Cn1nnnc1SCC1=C(C(=O)O)N2C(=O)C(NC(=O)[C@H](NC(=O)c3ccccc3O)c3ccc(O)cc3)C2SC1 (stereo partly drawn) [Example 4, 7-[D-[2-(4-Hydroxyphenyl)-2-[(2-hydroxybenzoyl)amino]acetyl]amino]-3-[[(1-methyltetrazol-5-yl)thio]methyl]-3-cephem-4-carboxylic acid]	33 (≈ 55.2 µM)	> 200	32.5 (≈ 54.4 µM)	60 (≈ 100 µM)	2.2 (≈ 3.68 µM)	5.09	10	104 (≈ 174 µM)	4 (≈ 6.69 µM)	41 (≈ 68.6 µM)	4.6 (≈ 7.7 µM)	49 (≈ 82 µM)	29 (≈ 48.5 µM)				
Cc1nnc(SCC2=C(C(=O)O)N3C(=O)C(NC(=O)[C@H](NC(=O)c4c(O)cccc4O)c4ccc(O)cc4)C3SC2)s1 (stereo partly drawn) [Example 5, 7-[D-[2-(4-Hydroxyphenyl)-2-[(2,6-dihydroxybenzoyl)-amino]acetyl]amino]-3-[[(5-methyl-1,3,4-thiadiazol-2-yl)thio]methyl]-3-cephem-4-carboxylic acid]	48 (≈ 76.2 µM)	> 200	82 (≈ 130 µM)	96 (≈ 152 µM)	1.3 (≈ 2.06 µM)	5.2	9.13	27.5 (≈ 43.7 µM)		60 (≈ 95.3 µM)	3.7 (≈ 5.88 µM)	110 (≈ 175 µM)	29.5 (≈ 46.8 µM)	4.6 (≈ 7.31 µM)			
Cc1nnc(SCC2=C(C(=O)O)N3C(=O)C(NC(=O)[C@H](NC(=O)c4cc(O)c(O)c(O)c4)c4ccc(O)cc4)C3SC2)s1 (stereo partly drawn) [Example 6, 7-[D-[2-(4-Hydroxyphenyl)-2-[(3,4,5-trihydroxybenzoyl)-amino]acetyl]amino]-3-[[(5-methyl-1,3,4-thiadiazol-2-yl)thio]methyl]-3-cephem-4-carboxylic acid]	5.8 (≈ 8.98 µM)	> 200	0.7 (≈ 1.08 µM)	21.7 (≈ 33.6 µM)	3.2 (≈ 4.96 µM)	4.88		6 (≈ 9.29 µM)		130 (≈ 201 µM)	6.6 (≈ 10.2 µM)	8.4 (≈ 13 µM)	3.9 (≈ 6.04 µM)	8.6 (≈ 13.3 µM)			
Cn1c(SCC2=C(C(=O)O)N3C(=O)C(NC(=O)[C@H](NC(=O)c4cccc(O)c4O)c4ccc(O)cc4)C3SC2)nnc(O)c1=O (stereo partly drawn) [Example 9, 7-[D-[2-(4-Hydroxyphenyl)-2-[(2,3-dihydroxybenzoyl)-amino]acetyl]amino]-3-[[(4,5-dihydro-6-hydroxy-4-methyl-5-oxo-1,2,4-triazin-3-yl)thio]methyl]-3-cephem-4-carboxylic acid]	8 (≈ 12.2 µM)	> 200	1 (≈ 1.52 µM)	22.5 (≈ 34.3 µM)	11.6 (≈ 17.7 µM)	4.99	8.89	124 (≈ 189 µM)		> 200	16.2 (≈ 24.7 µM)	11 (≈ 16.8 µM)	3.9 (≈ 5.94 µM)	14 (≈ 21.3 µM)			
Cc1nnc(SCC2=C(C(=O)O)N3C(=O)C(NC(=O)[C@H](NC(=O)c4cccc(O)c4)c4ccc(O)cc4)C3SC2)s1 (stereo partly drawn) [Example 10, 7-[D-[2-(4-Hydroxyphenyl)-2-[(3-hydroxybenzoyl)amino]-acetyl]amino]-3-[[(5-methyl-1,3,4-thiadiazol-2-yl)thio]-methyl]-3-cephem-4-carboxylic acid]	10.4 (≈ 16.9 µM)	> 200	26 (≈ 42.4 µM)	28.8 (≈ 46.9 µM)		5.02	11.9	> 200	1 (≈ 1.63 µM)	92 (≈ 150 µM)		65.5 (≈ 107 µM)	16.8 (≈ 27.4 µM)		1 (≈ 1.63 µM)	1 (≈ 1.63 µM)	
Cc1nnc(SCC2=C(C(=O)O)N3C(=O)C(NC(=O)[C@H](NC(=O)c4ccc(O)c(Cl)c4)c4ccc(O)cc4)C3SC2)s1 (stereo partly drawn) [Example 11, 7-[D-[2-(4-Hydroxyphenyl)-2-[(3-chloro-4-hydroxybenzoyl)-amino]acetyl]amino]-3-[[(5-methyl-1,3,4-thiadiazol-2-yl)-thio]methyl]-3-cephem-4-carboxylic acid]	9.6 (≈ 14.8 µM)	80 (≈ 123 µM)	25 (≈ 38.6 µM)	11.2 (≈ 17.3 µM)		4.9	9.5	124 (≈ 191 µM)		122 (≈ 188 µM)		36.8 (≈ 56.8 µM)	8.9 (≈ 13.7 µM)	1.1 (≈ 1.7 µM)	1 (≈ 1.54 µM)	1 (≈ 1.54 µM)	
Cc1nnc(SCC2=C(C(=O)O)N3C(=O)C(NC(=O)[C@H](NC(=O)c4cc(O)c(O)c(O)c4O)c4ccc(O)cc4)C3SC2)s1 (stereo partly drawn) [Example 14, 7-[D-[2-(4-Hydroxyphenyl)-2-[(2,3,4,5-tetrahydroxybenzoyl)amino]acetyl]amino]-3-[[(1-methyl-1,3,4-thiadiazol-2-yl)thio]methyl]-3-cephem-4-carboxylic acid]	5.7 (≈ 8.61 µM)	> 200	3 (≈ 4.53 µM)	10.1 (≈ 15.3 µM)	6.2 (≈ 9.37 µM)	4.98	7.63	92 (≈ 139 µM)		134 (≈ 203 µM)	7.2 (≈ 10.9 µM)	9.1 (≈ 13.8 µM)	5 (≈ 7.56 µM)	7.1 (≈ 10.7 µM)			9.69
Cn1nnnc1SCC1=C(C(=O)O)N2C(=O)C(NC(=O)[C@H](NC(=O)c3cc(O)ccc3O)c3ccc(O)cc3)C2SC1 (stereo partly drawn) [Example 15, 7-[D-[2-(4-Hydroxyphenyl)-2-[(2,5-dihydroxybenzoyl)-amino]acetyl]amino]-3-[[(1-methyltetrazol-5-yl)thio]-methyl]-3-cephem-4-carboxylic acid]	26.5 (≈ 43.2 µM)	> 200	17.8 (≈ 29 µM)	28 (≈ 45.6 µM)	10 (≈ 16.3 µM)	5.08	11	> 200		> 200	15 (≈ 24.4 µM)	43.5 (≈ 70.9 µM)	32.2 (≈ 52.5 µM)	13 (≈ 21.2 µM)			12.5
Cn1nnnc1SCC1=C(C(=O)O)N2C(=O)C(NC(=O)[C@H](NC(=O)c3cc(O)cc(O)c3)c3ccc(O)cc3)C2SC1 (stereo partly drawn) [Example 16, 7-[D-[2-(4-Hydroxyphenyl)-2-[(3,5-dihydroxybenzoyl)-amino]acetyl]amino]-3-[[(1-methyltetrazol-5-yl)thio]-methyl]-3-cephem-4-carboxylic acid]	9.8 (≈ 16 µM)	> 200	8.1 (≈ 13.2 µM)	16.5 (≈ 26.9 µM)	2.7 (≈ 4.4 µM)	5.22	11.7	> 200		112 (≈ 183 µM)	4.5 (≈ 7.33 µM)	22 (≈ 35.9 µM)	17.4 (≈ 28.4 µM)	1.9 (≈ 3.1 µM)			≥ 12
Cn1nnnc1SCC1=C(C(=O)O)N2C(=O)C(NC(=O)[C@H](NC(=O)c3ccc(O)cc3O)c3ccc(O)cc3)C2SC1 (stereo partly drawn) [Example 17, 7-[D-[2-(4-Hydroxyphenyl)-2-[(2,4-dihydroxybenzoyl)-amino]-acetyl]amino]-3-[[(1-methyltetrazol-5-yl)thio]-methyl]-3-cephem-4-carboxylic acid]	9.2 (≈ 15 µM)	> 200	14 (≈ 22.8 µM)	18 (≈ 29.3 µM)	2.4 (≈ 3.91 µM)	4.97	9.58	92 (≈ 150 µM)		102 (≈ 166 µM)		36 (≈ 58.7 µM)	15.5 (≈ 25.3 µM)	3.5 (≈ 5.7 µM)		4 (≈ 6.52 µM)	12.1
O=C(O)C1=C(Cl)CSC2C(NC(=O)[C@H](NC(=O)c3cccc(O)c3O)c3ccccc3)C(=O)N12 (stereo partly drawn) [Example 18, 7-[D-[2-Phenyl-2-[(2,3-dihydroxybenzoyl)amino]acetyl]-amino]-3-chloro-3-cephem-4-carboxylic acid]	18 (≈ 35.7 µM)	> 200	1 (≈ 1.98 µM)	82 (≈ 163 µM)	14.2 (≈ 28.2 µM)	4.55	3.84	> 200		> 200	24 (≈ 47.6 µM)	50 (≈ 99.2 µM)	7 (≈ 13.9 µM)	21.5 (≈ 42.7 µM)			
CC(=O)OCC1=C(C(=O)O)N2C(=O)C(NC(=O)C(NC(=O)c3cccc(O)c3O)c3ccccc3)C2SC1 [Example 19, 7-[D-[2-Phenyl-2-[(2,3-dihydroxybenzoyl)amino]acetyl]-amino]-3-acetoxymethyl-3-cephem-4-carboxylic acid]	50 (≈ 92.3 µM)	> 200	1 (≈ 1.85 µM)	> 200	14.7 (≈ 27.1 µM)	5	8.72	56 (≈ 103 µM)		> 200	17 (≈ 31.4 µM)	> 200	7.4 (≈ 13.7 µM)	16.2 (≈ 29.9 µM)			
